We go through two compounds from ChEMBL document CHEMBL6109142 (J Med Chem, 2025).

The source made the active and inactive calls. The rule behind the calls is not given here.

One data set relates to Calu-3. Kind of data set: Cytotoxicity against human Calu-3 cells assessed as cell viability at 10 uM measured after 72 hrs by luminescence based Cell-Titer-Glo assay. It counts as toxicity. The conditions noted are these: calu-3, 72 h.
In data set [1] the target is T1, Transmembrane protease serine 2 (Homo sapiens, UniProt O15393). Kind of data set: Inhibition of recombinant TMPRSS2 (unknown origin) extracted from baculovirus infected in Sf9 cells using Boc-QAR-AMC as substrate measured after 1 hr by fluorescence based analysis.
Data set [2] has as its target T1, Transmembrane protease serine 2. The experiment in a line: Inhibition of recombinant das TMPRSS2 (unknown origin) extracted from baculovirus infected in Sf9 cells assessed as inhibition constant using Boc-QAR-AMC as substrate measured after 1 hr by fluorescence based analysis.
Data set [3] concerns SARS-CoV-2. Kind of data set: Antiviral activity against SARS-CoV-2 JN.1 infected in human Calu-3 cells preincubated with cells for 3 hrs followed by viral infection and measured after 48 hrs by immunostaining based analysis. It counts as functional, organism-based. The conditions noted are these: Severe acute respiratory syndrome coronavirus 2, JN.1, Calu-3.
The test system of data set [4] is SARS-CoV-2. The experiment in a line: Antiviral activity against SARS-CoV-2 pseudotyped with delta spike protein infected in human Calu-3 cells assessed as prevention of virus-like particle cellular entry at 300 nM preincubated with cells for 3 hrs followed by viral infection and measured after 72 hrs by ONE-Glo-Ex luciferase assay relative to control. In kind it is functional, Severe acute respiratory syndrome coronavirus 2. The conditions noted are these: time 75 hrs.

For data set [5], the system named is SARS-CoV-2. Kind of data set: Antiviral activity against SARS-CoV-2 EG.5.1 infected in human Calu-3 cells preincubated with cells for 3 hrs followed by viral infection and measured after 48 hrs by immunostaining based analysis. The conditions noted are these: Severe acute respiratory syndrome coronavirus 2, EG.5.1, Calu-3. In kind it is functional, organism-based.

The test system of data set [6] is SARS-CoV-2. The experiment in a line: Antiviral activity against SARS-CoV-2 EG.5.1 infected in human Calu-3 cells assessed as reduction in residual intracellular nucleocapsid value at 1 uM preincubated with cells for 3 hrs followed by viral infection and measured after 48 hrs by immunostaining based analysis. It counts as functional, organism-based. The conditions noted are these: Severe acute respiratory syndrome coronavirus 2, time 51.0 hrs.

Another data set addresses Procathepsin L (Homo sapiens, UniProt P07711). Kind of data set: Inhibition of recombinant human C-terminal 6 his-tagged Cathepsin L assessed as inhibition constant using Z-LR-AMC as peptide substrate incubated for 1 hr by fluorescence based analysis.
Data set [7] deals with T1, Transmembrane protease serine 2. Kind of data set: Inhibition of recombinant TMPRSS2 (unknown origin) extracted from baculovirus infected in Sf9 cells assessed as residual activity using Boc-QAR-AMC as substrate at 1 nM measured after 1 hr by fluorescence based analysis relative to control.
The target of data set [8] is T2, Suppressor of tumorigenicity 14 protein (Homo sapiens, UniProt Q9Y5Y6).
T2 sequence (Q9Y5Y6 whole entry): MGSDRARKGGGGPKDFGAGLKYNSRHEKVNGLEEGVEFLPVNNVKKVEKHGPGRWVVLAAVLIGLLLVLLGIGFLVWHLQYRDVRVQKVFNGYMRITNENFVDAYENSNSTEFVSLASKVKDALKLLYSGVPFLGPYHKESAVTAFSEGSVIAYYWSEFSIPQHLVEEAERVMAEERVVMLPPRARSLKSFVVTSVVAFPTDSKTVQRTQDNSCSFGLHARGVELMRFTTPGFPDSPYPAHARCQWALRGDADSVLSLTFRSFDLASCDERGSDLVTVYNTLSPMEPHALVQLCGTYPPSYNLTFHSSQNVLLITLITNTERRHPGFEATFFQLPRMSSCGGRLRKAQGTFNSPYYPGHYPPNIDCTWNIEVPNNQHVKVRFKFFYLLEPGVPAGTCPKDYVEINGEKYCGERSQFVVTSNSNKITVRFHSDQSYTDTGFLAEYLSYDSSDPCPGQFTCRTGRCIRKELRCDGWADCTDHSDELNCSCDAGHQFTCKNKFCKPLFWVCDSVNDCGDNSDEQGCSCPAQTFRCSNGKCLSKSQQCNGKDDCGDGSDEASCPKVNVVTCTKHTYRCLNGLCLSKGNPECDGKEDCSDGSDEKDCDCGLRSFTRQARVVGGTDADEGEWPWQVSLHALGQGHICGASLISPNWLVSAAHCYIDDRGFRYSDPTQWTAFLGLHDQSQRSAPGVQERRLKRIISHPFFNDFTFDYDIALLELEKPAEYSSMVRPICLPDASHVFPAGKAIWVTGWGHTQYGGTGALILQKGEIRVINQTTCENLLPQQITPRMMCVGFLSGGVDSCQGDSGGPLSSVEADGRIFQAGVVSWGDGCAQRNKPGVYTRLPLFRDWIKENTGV
Kind of data set: Inhibition of Matriptase (unknown origin) assessed as inhibition constant using Boc-QAR-AMC as substrate incubated for 1 hr by fluorescence based analysis.

A short description of data set [9]: Toxicity in C57BL/6J mouse at 5 mg/kg, iv measured for 24 hrs. The conditions noted are these: in vivo. In kind it is organism-based.
Data set [10] in a line: Drug concentration in C57BL/6J mouse plasma measured after 15 mins. It counts as ADME. The conditions noted are these: read-out: Drug uptake.
The nature of data set [11]: Cytotoxicity against human Calu-3 cells assessed as cell viability measured after 72 hrs by luminescence based Cell-Titer-Glo assay. It counts as toxicity.
Data set [12] has as its target T1, Transmembrane protease serine 2. Kind of data set: Inhibition of full length TMPRSS2 (unknown origin) expressed in African green monkey Vero E6 cells using Boc-QAR-AMC as substrate incubated for 24 hrs by microplate reader analysis. In kind it is cell-based.
The subject of data set [13] is SARS-CoV-2. Kind of data set: Antiviral activity against SARS-CoV-2 EG.5.1 infected in human Calu-3 cells assessed as reduction in residual intracellular nucleocapsid value at 1 uM preincubated with cells for 3 hrs followed by viral infection and measured after 48 hrs by immunostaining based analysis relative to control. It counts as functional, Severe acute respiratory syndrome coronavirus 2. The conditions noted are these: time 51 hrs.

The nature of data set [14]: Half life in C57BL/6J mouse plasma at 5 mg/kg, ISIN (Intranasal) measured up to 24 hrs by LC-MS/MS analysis. The conditions noted are these: in vivo, inhaled_or_intranasal. In kind it is ADME, organism-based.
Data set [15] can be described thus: Half life in C57BL/6J mouse plasma at 5 mg/kg, iv measured up to 24 hrs by LC-MS/MS analysis. In kind it is ADME, organism-based. The conditions noted are these: in vivo.
Data set [16] can be described thus: Toxicity in C57BL/6J mouse at 5 mg/kg, ISIN (Intranasal) measured for 24 hrs. In kind it is organism-based. The conditions noted are these: in vivo, inhaled_or_intranasal.
A short description of data set [17]: Bioavailability in C57BL/6J mouse at 5 mg/kg, ISIN (Intranasal) measured up to 24 hrs by LC-MS/MS analysis. In kind it is ADME, organism-based. The conditions noted are these: in vivo, inhaled_or_intranasal.

As a reminder, the IC50 is the concentration that gives 50% inhibition. As a reminder, the Ki is a measure of affinity in units of concentration, obtained from inhibition or displacement. A word on the EC50: it is the midpoint of the concentration-response curve. In general, CC50 refers to the concentration at which the toxic effect on the cells reaches its halfway point.

T1 sequence (O15393 1-255 limits assumed): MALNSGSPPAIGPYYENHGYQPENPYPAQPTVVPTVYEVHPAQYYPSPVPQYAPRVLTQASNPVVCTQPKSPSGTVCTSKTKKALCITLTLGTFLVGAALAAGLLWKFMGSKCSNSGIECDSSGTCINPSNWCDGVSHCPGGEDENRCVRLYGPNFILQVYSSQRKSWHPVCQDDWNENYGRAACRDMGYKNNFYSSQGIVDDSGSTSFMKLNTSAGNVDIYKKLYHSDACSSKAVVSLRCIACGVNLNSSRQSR
T1 sequence (O15393 256-492 limits assumed): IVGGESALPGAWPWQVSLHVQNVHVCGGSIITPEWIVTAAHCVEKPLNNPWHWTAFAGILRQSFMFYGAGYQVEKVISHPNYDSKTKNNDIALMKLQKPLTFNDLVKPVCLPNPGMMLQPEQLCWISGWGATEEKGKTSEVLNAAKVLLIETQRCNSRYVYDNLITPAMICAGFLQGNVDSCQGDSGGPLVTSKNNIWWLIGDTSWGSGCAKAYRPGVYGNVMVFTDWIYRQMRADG
Sequence of Procathepsin L (P07711 114-333 limits assumed): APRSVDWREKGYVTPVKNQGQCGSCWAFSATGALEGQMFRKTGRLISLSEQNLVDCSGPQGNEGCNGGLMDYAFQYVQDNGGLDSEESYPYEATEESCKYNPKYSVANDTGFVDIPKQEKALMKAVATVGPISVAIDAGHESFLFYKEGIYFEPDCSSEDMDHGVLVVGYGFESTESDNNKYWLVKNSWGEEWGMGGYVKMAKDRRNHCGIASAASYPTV

Consider `C[C@H](NC(=O)[C@H](CCC(N)=O)NC(=O)CCCCNC(=N)N)C(=O)N[C@@H](CCCNC(=N)N)C(=O)c1nc2ccccc2s1`, for which the Activity result is “Non-toxic” in the data set on Calu-3, 12% in the data set with SARS-CoV-2 [4] and 46% in data set [7]. In addition, the IC50 in data set [1] is 2.4 nM. Besides, the Ki stood at 0.53 nM in [2] and 0.16 nM in data set [8]. Also, the half-maximal effective concentration (EC50) was determined as 2.8 nM in the data set on SARS-CoV-2 [3] and 11.9 nM in the data set on SARS-CoV-2 [5]. In addition, the outcome in the data set on SARS-CoV-2 [6] was Active. Moreover, the inhibition result on Procathepsin L was “inactive”.
Regarding `N=C(N)NCCC[C@H](NC(=O)[C@H](Cc1ccccc1)NC(=O)[C@H](CCC(N)=O)NC(=O)OCc1ccccc1)C(=O)c1nccs1`, the Activity result in the data set on Calu-3 is “Non-toxic”; in [9], “Non-toxic”; in the data set on SARS-CoV-2 [4], 13%; with SARS-CoV-2 [13], 2.2%; in [16], “Non-toxic”; in data set [7], 3%. For the same compound, the IC50 was 0.35 nM in data set [1] and 0.59 nM in data set [12]. Further, the concentration at 0.25 h in data set [10] is 182 ng/mL. Besides, the Ki in [2] was determined as 0.03 nM. Also, the EC50 is 0.09 nM in the data set with SARS-CoV-2 [3] and 0.3 nM with SARS-CoV-2 [5]. The CC50 at 72 h in data set [11] was 110000 nM. Further, the t1/2 worked out at 1.8 h in data set [14] and 4.79 h in data set [15]. Further, in the data set on SARS-CoV-2 [6], the outcome was Active. On Procathepsin L, the inhibition entry was “inactive”. This compound had a F in data set [17] of 10.9%.
